The supplement of paper PMC8671470

Experiments:
Conditions in all cases: 72 h
[1] = tested on: myeloid leukemia patient primary cells Pat.13; assay: cell viability (% survival relative to DMSO control); higher = less cytotoxic
Procedure, shortened: (§1)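 Thawed mononuclear cells from AML or CML patients were purified on Ficoll and cultured for 72 h in RPMI 1640 with 10% FBS, at 10,000 cells/well, on 384-well plates carrying 70 pre-printed compounds at 1–10,000 nM in five tenfold steps, in duplicate. Viability came from CellTiter-Glo, normalised against DMSO and against 10 μM proteasome inhibitor. Any area under the curve given was derived from log-logistic curve fits in the drc and PharmacoGx R packages, and these fits had four parameters.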

[2] = tested on: myeloid leukemia patient primary cells Pat.12; assay: as above
Procedure, shortened: as §1

[3] = tested on: myeloid leukemia patient primary cells Pat.15; assay: as above
Procedure, shortened: as §1

[4] = tested on: myeloid leukemia patient primary cells Pat.2; assay: as above
Procedure, shortened: as §1

[5] = tested on: myeloid leukemia patient primary cells Pat.10; assay: as above
Procedure, shortened: as §1

[6] = tested on: myeloid leukemia patient primary cells Pat.3; assay: as above
Procedure, shortened: as §1

[7] = tested on: MV4-11; assay: cell viability (% survival relative to DMSO control, bortezomib = 0%); higher = less cytotoxic
Procedure, shortened: (§2)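 Fifteen myeloid leukaemia cell lines (10 AML, 5 CML) were seeded at a density titrated to the linear growth range. They went into 384-well plates with compounds pre-printed at 1, 10, 100, 1000 or 10000 nM in duplicate. After 72 h at 37 °C with 5% CO2, viability was read by CellTiter-Glo luminescence. Values are percent survival, with vehicle set to 100% and a 10 µM positive control to 0%, averaged over the duplicates.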

[8] = tested on: THP-1; assay: as above
Procedure, shortened: as §2

[9] = tested on: MOLM-13; assay: as above
Procedure, shortened: as §2

[10] = tested on: KG-1; assay: as above
Procedure, shortened: as §2

[11] = tested on: myeloid leukemia patient primary cells Pat.13; assay: area under dose-response curve (viability, 1 nM-10 uM) (fraction (0-1)); higher = more sensitive
Procedure, shortened: as §1

[12] = tested on: myeloid leukemia patient primary cells Pat.9; assay: as above
Procedure, shortened: as §1

[13] = tested on: myeloid leukemia patient primary cells Pat.11; assay: as above
Procedure, shortened: as §1

[14] = tested on: myeloid leukemia patient primary cells Pat.1; assay: as above
Procedure, shortened: as §1

[15] = tested on: myeloid leukemia patient primary cells Pat.14; assay: as above
Procedure, shortened: as §1

[16] = tested on: myeloid leukemia patient primary cells Pat.8; assay: as above
Procedure, shortened: as §1

[17] = tested on: myeloid leukemia patient primary cells Pat.4; assay: as above
Procedure, shortened: as §1

[18] = tested on: myeloid leukemia patient primary cells Pat.7; assay: as above
Procedure, shortened: as §1

[19] = tested on: myeloid leukemia patient primary cells Pat.12; assay: as above
Procedure, shortened: as §1

[20] = tested on: myeloid leukemia patient primary cells Pat.5; assay: as above
Procedure, shortened: as §1

[21] = tested on: myeloid leukemia patient primary cells Pat.15; assay: as above
Procedure, shortened: as §1

[22] = tested on: myeloid leukemia patient primary cells Pat.2; assay: as above
Procedure, shortened: as §1

[23] = tested on: myeloid leukemia patient primary cells Pat.6; assay: as above
Procedure, shortened: as §1

[24] = tested on: myeloid leukemia patient primary cells Pat.10; assay: as above
Procedure, shortened: as §1

[25] = tested on: myeloid leukemia patient primary cells Pat.3; assay: as above
Procedure, shortened: as §1

N#CC(C#N)=NNc1ccc(OC(F)(F)F)cc1 [FCCP]
cell viability [%]
Conditions	[1]	[2]	[3]	[4]	[5]	[6]	[7]	[8]	[9]	[10]
1 nM	85	> 100	91.2	92.5	66.5	88.5	104	104	121	101
10 nM	> 100	93.3	99.1	90.8	64	82.9	101	94.3	92.6	101
100 nM	89.8	99.7	94.5	> 100	50.5	94.9	98.9	102	99.3	94.7
1000 nM	59.4	89.5	81.5	95.3	7.03	3.06	88.5	102	82.7	80.8
10000 nM	4.66	36.1	3.23	30	2.16	< 0	-1.01	7.73	0.459	7.07

Conditions	area under dose-response curve
[11]	0.211
[12]	0.361
[13]	0.158
[14]	0.214
[15]	0.316
[16]	0.116
[17]	0.229
[18]	0.366
[19]	0.0898
[20]	0.825
[21]	0.159
[22]	0.0623
[23]	0.175
[24]	0.466
[25]	0.361

O=C(O)Cn1nnc(-c2cc(N3CCC(Oc4cc(F)ccc4Br)CC3)no2)n1 [MK-8245]
cell viability [%]
Conditions	[1]	[2]	[3]	[4]	[5]	[6]	[7]	[8]	[9]	[10]
1 nM	87.2	> 100	95.9	> 100	56.6	> 100	96.8	95.3	104	105
10 nM	88.5	88.3	91.5	97	80.7	98.2	91.6	96.1	131	117
100 nM	99.8	> 100	93.5	> 100	> 100	78.1	92.4	102	86.1	108
1000 nM	95.8	95.7	> 100	> 100	54.5	62	116	99	48.2	102
10000 nM	95.5	93.6	95.2	96.3	4.72	57	94.2	89.2	35.8	112

Conditions	area under dose-response curve
[11]	< 0.0301
[12]	< 0.0301
[13]	< 0.0301
[14]	< 0.0301
[15]	< 0.0301
[16]	< 0.0301
[17]	< 0.0301
[18]	< 0.0301
[19]	< 0.0301
[20]	0.0448
[21]	< 0.0301
[22]	< 0.0301
[23]	< 0.0301
[24]	0.205
[25]	0.0756

C=C(C=NNC(=N)N)NNC(=N)N [Mitoguazone]
cell viability [%]
Conditions	[1]	[2]	[3]	[4]	[5]	[6]	[7]	[8]	[9]	[10]
1 nM	88.3	> 100	89.7	96.2	78.7	97.3	105	101	93.7	94.9
10 nM	78.5	90	82.8	79.2	59.4	82.2	99.2	104	88.3	97.2
100 nM	91.2	99.3	91.4	49.2	13.6	51.4	115	94.9	133	103
1000 nM	50.8	96.9	69.4	50	28.1	4.18	59.8	76.1	52.2	84.7
10000 nM	> 100	99.4	19.6	67.7	89.2	53	10.4	43.6	13.8	34.8

Conditions	area under dose-response curve
[11]	< 0.0301
[12]	0.6
[13]	< 0.0301
[14]	< 0.0301
[15]	0.604
[16]	< 0.0301
[17]	0.0342
[18]	0.528
[19]	< 0.0301
[20]	0.715
[21]	0.161
[22]	< 0.0301
[23]	0.484
[24]	0.574
[25]	0.412

COc1cc(/C=C/C(=O)N2CCC=CC2=O)cc(OC)c1OC [Piperlongumine]
cell viability [%]
Conditions	[1]	[2]	[3]	[4]	[5]	[6]	[7]	[8]	[9]	[10]
1 nM	81.8	99.6	84	90.5	79.5	60	95	103	98.6	98.4
10 nM	98.3	88.9	96.2	98.5	77.8	> 100	90.4	93.9	87.6	102
100 nM	76	95.2	98.5	93.3	71.8	84.6	89.7	101	99.5	93.1
1000 nM	69	80.4	70.3	93.6	45.5	51.3	44.4	88	75.7	98.3
10000 nM	21.2	3.26	1.42	4.56	> 100	3.72	-0.271	-0.152	0.668	4.3

Conditions	area under dose-response curve
[11]	0.149
[12]	0.505
[13]	0.121
[14]	0.143
[15]	0.244
[16]	0.144
[17]	0.21
[18]	0.0802
[19]	0.162
[20]	0.585
[21]	0.191
[22]	0.125
[23]	0.116
[24]	< 0.0301
[25]	0.219
